What was measured:
Experiment in all cases: biochemical
Design in all cases: DiscoverX KINOMEscan scanMAX competition binding panel, single concentration, percent of control; remaining binding: dose or concentration left out as unconfirmed
Settings in all cases: KINOMEscan binding, percent of control; read-out: Table S4_SCANMAX REPORT - related to Fig. 1 / Percent Control
CSNK1D = CSNK1D (Homo sapiens, UniProt P48730)
MAP4K4 = MAP4K4 (Homo sapiens, UniProt O95819)
AURKC = AURKC (Homo sapiens, UniProt Q9UQB9)
Sequence of AURKC (Q9UQB9 whole entry): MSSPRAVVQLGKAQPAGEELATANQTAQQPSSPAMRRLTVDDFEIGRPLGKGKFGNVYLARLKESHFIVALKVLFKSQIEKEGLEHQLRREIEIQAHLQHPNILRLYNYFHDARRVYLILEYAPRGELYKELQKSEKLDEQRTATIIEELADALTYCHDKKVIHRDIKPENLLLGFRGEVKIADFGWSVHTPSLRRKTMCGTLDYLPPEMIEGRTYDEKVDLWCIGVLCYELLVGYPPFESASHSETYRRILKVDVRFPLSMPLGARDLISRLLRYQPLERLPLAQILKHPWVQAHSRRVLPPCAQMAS

ACVR1B = ACVR1B (Homo sapiens, UniProt P36896)
MST2 = biological target: T1, MST2 (Homo sapiens, UniProt Q13188)
T1 construct: gene STK3
T1 sequence (Q13188 whole entry): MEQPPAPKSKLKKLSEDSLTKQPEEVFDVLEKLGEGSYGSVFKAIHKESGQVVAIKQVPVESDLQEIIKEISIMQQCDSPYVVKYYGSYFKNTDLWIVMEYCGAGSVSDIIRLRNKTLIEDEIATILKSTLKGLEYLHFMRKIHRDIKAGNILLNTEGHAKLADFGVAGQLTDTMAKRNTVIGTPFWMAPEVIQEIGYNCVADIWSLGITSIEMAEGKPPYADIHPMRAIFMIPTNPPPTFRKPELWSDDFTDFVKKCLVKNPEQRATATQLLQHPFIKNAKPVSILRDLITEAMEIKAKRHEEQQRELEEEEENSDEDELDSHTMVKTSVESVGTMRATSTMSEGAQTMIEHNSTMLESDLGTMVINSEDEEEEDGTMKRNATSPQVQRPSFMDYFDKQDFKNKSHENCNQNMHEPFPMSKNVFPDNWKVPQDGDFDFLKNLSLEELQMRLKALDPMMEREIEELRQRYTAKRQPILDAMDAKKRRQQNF

CSNK2A1 = CSNK2A1 (Homo sapiens, UniProt P68400)
MYLK2 = MYLK2 (Homo sapiens, UniProt Q9H1R3)
[1] = biological target: T2, ABL1(F317L)-nonphosphorylated (Homo sapiens, UniProt P00519, F317L)
T2 construct: nonphosphorylated
T2 sequence (P00519 whole entry F317L): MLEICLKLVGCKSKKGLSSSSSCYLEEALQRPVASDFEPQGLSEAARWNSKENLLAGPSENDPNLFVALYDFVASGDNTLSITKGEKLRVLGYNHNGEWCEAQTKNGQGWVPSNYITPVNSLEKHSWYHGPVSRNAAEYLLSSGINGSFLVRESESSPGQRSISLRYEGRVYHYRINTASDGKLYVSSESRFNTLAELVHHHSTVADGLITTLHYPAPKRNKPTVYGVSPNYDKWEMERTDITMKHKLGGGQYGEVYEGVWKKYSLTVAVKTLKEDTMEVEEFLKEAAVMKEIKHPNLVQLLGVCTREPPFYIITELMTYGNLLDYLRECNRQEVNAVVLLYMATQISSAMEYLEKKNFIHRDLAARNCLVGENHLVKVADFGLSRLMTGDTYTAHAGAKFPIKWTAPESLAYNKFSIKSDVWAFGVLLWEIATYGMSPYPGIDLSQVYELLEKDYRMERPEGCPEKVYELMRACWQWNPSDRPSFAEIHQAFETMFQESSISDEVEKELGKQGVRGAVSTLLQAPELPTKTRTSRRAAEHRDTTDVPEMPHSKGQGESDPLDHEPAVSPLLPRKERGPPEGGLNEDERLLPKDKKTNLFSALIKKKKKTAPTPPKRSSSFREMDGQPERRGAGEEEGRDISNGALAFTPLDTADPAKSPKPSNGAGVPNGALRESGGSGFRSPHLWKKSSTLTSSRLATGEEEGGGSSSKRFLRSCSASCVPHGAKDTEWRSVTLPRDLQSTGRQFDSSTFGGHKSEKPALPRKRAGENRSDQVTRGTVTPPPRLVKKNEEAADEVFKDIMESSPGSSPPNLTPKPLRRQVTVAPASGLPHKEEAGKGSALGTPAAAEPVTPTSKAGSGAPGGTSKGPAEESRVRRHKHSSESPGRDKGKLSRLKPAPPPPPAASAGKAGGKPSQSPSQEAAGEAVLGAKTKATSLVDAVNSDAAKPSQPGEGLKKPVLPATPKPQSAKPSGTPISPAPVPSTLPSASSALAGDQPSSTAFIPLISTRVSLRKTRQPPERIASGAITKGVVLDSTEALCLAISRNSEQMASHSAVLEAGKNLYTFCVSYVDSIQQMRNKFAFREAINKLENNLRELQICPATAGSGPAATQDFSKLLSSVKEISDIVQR

FGFR4 = FGFR4 (Homo sapiens, UniProt P22455)
MAPKAPK5 = MAPKAPK5 (Homo sapiens, UniProt Q8IW41)
TSSK3 = TSSK3 (Homo sapiens, UniProt Q96PN8)
Sequence of TSSK3 (Q96PN8 whole entry): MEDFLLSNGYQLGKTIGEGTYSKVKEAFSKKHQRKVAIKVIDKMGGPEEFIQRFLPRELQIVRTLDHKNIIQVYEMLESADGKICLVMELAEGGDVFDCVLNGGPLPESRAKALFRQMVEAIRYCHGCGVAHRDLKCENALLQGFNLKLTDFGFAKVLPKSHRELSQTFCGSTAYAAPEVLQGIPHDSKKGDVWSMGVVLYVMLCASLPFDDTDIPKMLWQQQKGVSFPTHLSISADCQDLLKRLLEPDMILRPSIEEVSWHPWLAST

ACVR1 = ACVR1 (Homo sapiens, UniProt Q04771)
LRRK2 = LRRK2 (Homo sapiens, UniProt Q5S007)
RIPK5 = biological target: T3, RIPK5 (Homo sapiens, UniProt Q6XUX3)
T3 construct: gene DSTYK
T3 sequence (Q6XUX3 whole entry): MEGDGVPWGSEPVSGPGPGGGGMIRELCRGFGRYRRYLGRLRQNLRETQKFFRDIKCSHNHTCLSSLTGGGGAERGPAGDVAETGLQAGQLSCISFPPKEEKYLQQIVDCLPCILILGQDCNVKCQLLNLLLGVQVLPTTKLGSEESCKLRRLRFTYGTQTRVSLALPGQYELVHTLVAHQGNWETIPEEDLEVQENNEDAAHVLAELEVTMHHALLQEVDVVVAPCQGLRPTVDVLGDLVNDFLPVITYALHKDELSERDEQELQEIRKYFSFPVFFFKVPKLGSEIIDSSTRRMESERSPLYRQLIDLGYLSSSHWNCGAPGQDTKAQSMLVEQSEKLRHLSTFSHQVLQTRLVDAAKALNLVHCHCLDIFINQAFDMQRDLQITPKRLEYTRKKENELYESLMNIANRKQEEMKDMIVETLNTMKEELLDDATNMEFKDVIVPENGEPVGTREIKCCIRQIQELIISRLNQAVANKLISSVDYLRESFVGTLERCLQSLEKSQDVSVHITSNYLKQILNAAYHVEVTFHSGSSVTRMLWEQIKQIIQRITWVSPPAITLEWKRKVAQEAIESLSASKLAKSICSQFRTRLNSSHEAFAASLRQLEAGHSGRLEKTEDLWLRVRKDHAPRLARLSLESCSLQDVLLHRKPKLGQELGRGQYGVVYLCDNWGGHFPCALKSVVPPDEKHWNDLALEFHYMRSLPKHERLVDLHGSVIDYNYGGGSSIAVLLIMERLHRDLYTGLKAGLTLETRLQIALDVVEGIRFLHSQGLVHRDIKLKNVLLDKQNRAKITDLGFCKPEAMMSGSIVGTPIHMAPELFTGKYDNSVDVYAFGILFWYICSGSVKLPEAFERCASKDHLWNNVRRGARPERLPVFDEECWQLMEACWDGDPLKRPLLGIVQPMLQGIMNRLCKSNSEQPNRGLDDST

MEK5 = biological target: T4, MEK5 (Homo sapiens, UniProt Q13163)
T4 construct: gene MAP2K5
T4 sequence (Q13163 whole entry): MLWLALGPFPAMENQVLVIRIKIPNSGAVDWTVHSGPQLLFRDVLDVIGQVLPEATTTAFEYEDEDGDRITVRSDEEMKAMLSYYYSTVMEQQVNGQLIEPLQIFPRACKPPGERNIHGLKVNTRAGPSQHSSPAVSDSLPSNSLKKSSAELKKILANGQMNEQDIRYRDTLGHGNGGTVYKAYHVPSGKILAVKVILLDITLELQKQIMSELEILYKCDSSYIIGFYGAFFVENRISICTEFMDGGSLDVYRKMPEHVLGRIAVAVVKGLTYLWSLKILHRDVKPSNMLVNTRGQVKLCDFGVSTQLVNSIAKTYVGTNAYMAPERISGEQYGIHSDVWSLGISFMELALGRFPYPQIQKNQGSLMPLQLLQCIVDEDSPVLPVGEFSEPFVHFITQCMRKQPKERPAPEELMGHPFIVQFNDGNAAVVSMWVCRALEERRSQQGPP

FES = FES (Homo sapiens, UniProt P07332)
Sequence of FES (P07332 whole entry): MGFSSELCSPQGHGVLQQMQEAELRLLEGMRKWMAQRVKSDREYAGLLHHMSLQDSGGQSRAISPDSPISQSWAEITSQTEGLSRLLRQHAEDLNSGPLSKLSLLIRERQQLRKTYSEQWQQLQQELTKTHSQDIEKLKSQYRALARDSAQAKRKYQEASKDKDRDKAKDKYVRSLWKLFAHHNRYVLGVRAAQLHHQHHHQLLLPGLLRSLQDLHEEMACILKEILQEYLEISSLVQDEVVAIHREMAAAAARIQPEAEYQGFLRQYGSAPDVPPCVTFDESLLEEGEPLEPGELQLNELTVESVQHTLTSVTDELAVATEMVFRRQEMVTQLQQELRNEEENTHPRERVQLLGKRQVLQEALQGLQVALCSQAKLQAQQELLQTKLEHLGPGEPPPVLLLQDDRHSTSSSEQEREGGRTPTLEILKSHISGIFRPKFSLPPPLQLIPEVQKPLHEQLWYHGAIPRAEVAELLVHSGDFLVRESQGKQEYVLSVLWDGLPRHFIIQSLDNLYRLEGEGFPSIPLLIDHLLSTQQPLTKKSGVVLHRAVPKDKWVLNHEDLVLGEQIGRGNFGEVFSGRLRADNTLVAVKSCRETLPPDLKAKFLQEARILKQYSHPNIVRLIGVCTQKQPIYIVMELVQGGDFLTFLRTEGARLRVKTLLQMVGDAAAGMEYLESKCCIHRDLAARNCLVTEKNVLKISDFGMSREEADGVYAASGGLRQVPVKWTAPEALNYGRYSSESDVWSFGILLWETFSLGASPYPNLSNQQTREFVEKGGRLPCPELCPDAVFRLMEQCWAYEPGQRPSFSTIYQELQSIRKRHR

CDK5 = CDK5 (Homo sapiens, UniProt Q00535)
Sequence of CDK5 (Q00535 whole entry): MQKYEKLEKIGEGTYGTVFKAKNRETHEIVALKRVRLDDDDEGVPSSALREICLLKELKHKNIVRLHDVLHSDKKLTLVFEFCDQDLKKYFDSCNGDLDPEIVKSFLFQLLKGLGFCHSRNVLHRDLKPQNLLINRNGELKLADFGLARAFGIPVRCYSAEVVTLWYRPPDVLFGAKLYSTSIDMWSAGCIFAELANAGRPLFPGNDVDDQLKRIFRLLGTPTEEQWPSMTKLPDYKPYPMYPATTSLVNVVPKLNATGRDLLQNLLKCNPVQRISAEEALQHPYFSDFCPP

MYO3B = MYO3B (Homo sapiens, UniProt Q8WXR4)
RIPK1 = RIPK1 (Homo sapiens, UniProt Q13546)

## c1ccc2c(c1)Sc1ccccc1N2CCN1CCOCC1 [J54]
CSNK1D
  remaining binding: 95%
MAP4K4
  remaining binding: 66%
AURKC
  remaining binding: 100%
ACVR1B
  remaining binding: 88%
MST2
  remaining binding: 100%
CSNK2A1
  remaining binding: 79%
MYLK2
  remaining binding: 74%
[1]
  remaining binding: 98%
FGFR4
  remaining binding: 100%
MAPKAPK5
  remaining binding: 100%
TSSK3
  remaining binding: 87%
ACVR1
  remaining binding: 94%
LRRK2
  remaining binding: 100%
RIPK5
  remaining binding: 100%
MEK5
  remaining binding: 95%
FES
  remaining binding: 100%
CDK5
  remaining binding: 99%
MYO3B
  remaining binding: 100%
RIPK1
  remaining binding: 84%

Reference: publication PMC7486443, “Generation of Phenothiazine with Potent Anti-TLK1 Activity for Prostate Cancer Therapy” (iScience, 2020)
